Consider 22 compounds from US9487511B2, “Cyclopropanamine compound and use thereof” (Takeda Pharmaceutical Company Limited, priority 2014, dated 2016).

The target in one series is human LSD1(172-833) (Homo sapiens (Human), UniProt O60341). In words: Measurement of LSD1 inhibitory activity (time-resolved fluorescence, biotin-histone H3 mono methylated K4 peptide).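 Note: after the compound–enzyme step, substrate reaction 5 min at room temperature in Tris-HCl pH 8.0 with BSA and DTT, halted by 2-PCPA, detected with europium anti-histone H3 antibody plus Streptavidin-XL665.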 It counts as biochemical. Particulars: 60 min preincubation with enzyme at room temperature.
The next series addresses MAO-A enzyme (Homo sapiens (Human), UniProt P21397). In words: Measurement of MAO-A inhibitory activity (MAO-Glo Assay). It counts as biochemical.
The target in a further series is MAO-B enzyme (Homo sapiens (Human), UniProt P27338). The experiment in a line: Measurement of MAO-B inhibitory activity (MAO-Glo Assay). It counts as biochemical.
The nature of series [1]: Evaluation of blood cell number in mouse. To be noted: male ICR mice, oral, repeated 7 or 9 days. The class given is in vivo. Here is the method:
All compounds were repeatedly administered to the mice at a dose of 1 mg/kg, 10 mg/kg or 100 mg/kg (body weight) for 7 or 9 days. One day after the final administration of the compound, the whole blood was collected.
Using Sysmex XT-1800i (Sysmex Corporation), the white blood cell number, red blood cell number, and platelet number in the collected whole blood per unit volume were measured. The influence of each compound on each blood cell number was determined by calculating the number with the mean of each blood cell number of the mouse without administration of the compound (0 mg/kg group), and the mean of each blood cell number in the whole blood of a mouse with the administration of the compound.

Broadly, the IC50 is the concentration at which inhibition is half-maximal. High values mean lower potency, low ones higher potency.

Where a name gives a salt, the structure may show the parent alone. Read-outs that look alike come from different tables or passages of the source.

Chain of MAO-A enzyme (P21397 whole entry): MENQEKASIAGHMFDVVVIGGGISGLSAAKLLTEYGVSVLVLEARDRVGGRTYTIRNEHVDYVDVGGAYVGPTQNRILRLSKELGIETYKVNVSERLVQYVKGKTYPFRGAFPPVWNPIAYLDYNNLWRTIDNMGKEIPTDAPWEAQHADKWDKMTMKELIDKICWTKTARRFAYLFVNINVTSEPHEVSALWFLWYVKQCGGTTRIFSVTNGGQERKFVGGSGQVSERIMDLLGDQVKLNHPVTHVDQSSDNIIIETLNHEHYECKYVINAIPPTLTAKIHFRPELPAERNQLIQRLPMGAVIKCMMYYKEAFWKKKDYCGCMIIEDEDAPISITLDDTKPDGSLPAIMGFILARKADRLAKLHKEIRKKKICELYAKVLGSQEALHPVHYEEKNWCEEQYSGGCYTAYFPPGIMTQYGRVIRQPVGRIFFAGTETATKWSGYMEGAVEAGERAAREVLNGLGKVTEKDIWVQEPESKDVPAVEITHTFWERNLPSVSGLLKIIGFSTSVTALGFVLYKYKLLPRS
Chain of MAO-B enzyme (P27338 whole entry): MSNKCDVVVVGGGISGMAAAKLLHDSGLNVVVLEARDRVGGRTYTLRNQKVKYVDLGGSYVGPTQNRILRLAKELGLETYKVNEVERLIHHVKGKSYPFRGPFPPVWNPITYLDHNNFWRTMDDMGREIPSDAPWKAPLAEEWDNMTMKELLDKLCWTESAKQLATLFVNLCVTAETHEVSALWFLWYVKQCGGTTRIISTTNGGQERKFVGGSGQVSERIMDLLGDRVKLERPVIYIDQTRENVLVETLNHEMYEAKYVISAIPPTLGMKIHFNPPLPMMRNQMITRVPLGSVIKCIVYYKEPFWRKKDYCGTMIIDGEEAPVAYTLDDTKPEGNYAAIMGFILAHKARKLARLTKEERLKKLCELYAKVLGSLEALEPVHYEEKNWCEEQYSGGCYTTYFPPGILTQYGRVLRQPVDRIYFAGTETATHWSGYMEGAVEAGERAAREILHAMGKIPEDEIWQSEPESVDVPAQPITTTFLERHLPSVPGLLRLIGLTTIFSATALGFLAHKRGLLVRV
Protocol for MAO-A enzyme: The MAO-A inhibitory activity evaluation described below followed the protocol of MAO-Glo (registered trademark) Assay of Promega KK.
A test compound dissolved in DMSO was added to a reaction solution (100 mM HEPES (pH 7.5), 5% glycerol) containing MAO-A enzyme (Sigma-Aldrich Co. LLC.), and the mixture was reacted at room temperature for 15 min. MAO substrate (Promega KK) was added to start the reaction. After reaction at room temperature for 60 min, Luciferine detection reagent (Promega KK) was added to terminate the reaction. After reaction at room temperature for 20 min with stirring, the luminescence was measured by Envision (PerkinElmer). The MAO-A inhibitory rate (%) of the test compound was calculated by the following formula. inhibitory rate (%)=(1−(test compound count−blank)÷(control−blank))×100
The count of the MAO-A enzyme reaction mixture under compound non-addition conditions is indicated as control, and the count under compound non-addition and MAO-A enzyme non-addition conditions is indicated as blank.
Protocol for MAO-B enzyme: The MAO-B inhibitory activity evaluation described below followed the protocol of MAO-Glo (registered trademark) Assay of Promega KK.
A test compound dissolved in DMSO was added to a reaction solution (100 mM HEPES (pH 7.5), 5% glycerol, 10% DMSO) containing MAO-B enzyme (Sigma-Aldrich Co. LLC.), and the mixture was reacted at room temperature for 15 min. MAO substrate (Promega KK) was added to start the reaction. After reaction at room temperature for 60 min, Luciferine detection reagent (Promega KK) (50 μL) was added to terminate the reaction. After reaction at room temperature for 20 min with stirring, the luminescence was measured by Envision (PerkinElmer). The MAO-B inhibitory rate (%) of the test compound was calculated by the following formula. inhibitory rate (%)=(1−(test compound count−blank)÷(control−blank))×100
The count of the MAO-B enzyme reaction mixture under compound non-addition conditions is indicated as control, and the count under compound non-addition and MAO-B enzyme non-addition conditions is indicated as blank.
Protocol for human LSD1(172-833): A test compound dissolved in DMSO was added by to a reaction solution (50 mM Tris-HCl (pH 8.0), 0.1% BSA, 1 mM DTT) containing LSD1 enzyme, and the mixture was reacted at room temperature for 60 min. […] After reaction at room temperature for 5 min, 2-PCPA solution was added to terminate the reaction. A detection solution (800 mM potassium fluoride, 0.1% BSA) containing europium-labeled anti-histone H3 antibody (Wako Pure Chemical Industries, Ltd.) and Streptavidin-XL665 (Cisbio) was further added, and the mixture was left standing for 60 min. […] The LSD1 inhibitory rate (%) of the test compound was calculated by the following formula. inhibitory rate (%)=(1−(test compound count−blank)÷(control−blank))×100
The count of the LSD1 enzyme reaction mixture under compound non-addition conditions is indicated as control, and the count under compound non-addition and LSD1 enzyme non-addition conditions is indicated as blank. A concentration necessary for achieving 50% inhibitory rate was taken as ICH value.

With `O=C(NC1CCC(F)(F)CC1)c1csc([C@@H]2C[C@H]2NCC2CCOCC2)c1` [Example 51, N-(4,4-difluorocyclohexyl)-5-((1R,2R)-2-((tetrahydro-2H-pyran-4-ylmethyl)amino)cyclopropyl)thiophene-3-carboxamide hydrochloride], the IC50 is < 0.1 µM against human LSD1(172-833), > 100 µM at MAO-A enzyme and > 100 µM on MAO-B enzyme.

Regarding `Cc1sc([C@@H]2C[C@H]2NCC2CCOCC2)cc1C(=O)NC1CCC(F)(F)CC1` (relative stereo) [Example 66, N-(4,4-difluorocyclohexyl)-2-methyl-5-(trans-2-((tetrahydro-2H-pyran-4-ylmethyl)amino)cyclopropyl)thiophene-3-carboxamide hydrochloride], the IC50 against human LSD1(172-833) was < 0.1 µM; against MAO-A enzyme, 98 µM; against MAO-B enzyme, > 100 µM.

In the case of `Cc1nnc(NC(=O)c2cc([C@@H]3C[C@H]3NCC3CCOCC3)sc2C)s1` (relative stereo) [Example 70, 2-methyl-N-(5-methyl-1,3,4-thiadiazol-2-yl)-5-(trans-2-((tetrahydro-2H-pyran-4-ylmethyl)amino)cyclopropyl)thiophene-3-carboxamide dihydrochloride], the IC50 against human LSD1(172-833) is < 0.1 µM; at MAO-A enzyme it was 10 µM; on MAO-B enzyme it was 23 µM.

Consider `O=C(NC1CCC(F)(F)CC1)c1csc([C@@H]2C[C@H]2NC2CCN(C(=O)C3CC3)CC2)c1` [Example 92, 5-((1R,2R)-2-((1-(cyclopropylcarbonyl)piperidin-4-yl)amino)cyclopropyl)-N-(4,4-difluorocyclohexyl)thiophene-3-carboxamide hydrochloride], for which the IC50 is < 0.1 µM at human LSD1(172-833), > 100 µM against MAO-A enzyme and > 100 µM against MAO-B enzyme.

As to `Cc1ncc(NC(=O)c2csc([C@@H]3C[C@H]3NCC3CCOCC3)c2)s1` [Example 53, N-(2-methyl-1,3-thiazol-5-yl)-5-((1R,2R)-2-((tetrahydro-2H-pyran-4-ylmethyl)amino)cyclopropyl)thiophene-3-carboxamide dihydrochloride], the 50% inhibitory concentration (IC50) was < 0.1 µM on human LSD1(172-833), 61 µM against MAO-A enzyme and 96 µM against MAO-B enzyme.

In the case of `O=C(NC1CCC(F)(F)CC1)c1cc2c(c([C@@H]3C[C@H]3NCC3CCOCC3)c1)OCC2` (relative stereo) [Example 12, N-(4,4-difluorocyclohexyl)-7-(trans-2-((tetrahydro-2H-pyran-4-ylmethyl)amino)cyclopropyl)-2,3-dihydro-1-benzofuran-5-carboxamide hydrochloride], the IC50 is < 0.1 µM against human LSD1(172-833), > 100 µM against MAO-A enzyme and > 100 µM on MAO-B enzyme.

For the compound `Cc1nnc(NC(=O)c2cc([C@@H]3C[C@H]3NCC3CC3)c(C)s2)s1` [Example 95, 4-((1S,2R)-2-((cyclopropylmethyl)amino)cyclopropyl)-5-methyl-N-(5-methyl-1,3,4-thiadiazol-2-yl)thiophene-2-carboxamide fumarate], in series [1] (1 mg/kg), the “Platelets, Mean” value is listed as 1352 10^3 cells; the “Red blood cells, Mean” value is given as 888 10^4 cells; the “White blood cells, Mean” value was 422 10 cells. In series [1] (10 mg/kg), the “Platelets, Mean” value is given as 1482 10^3 cells; the “Red blood cells, Mean” value is on record as 898 10^4 cells; the “White blood cells, Mean” value is 408 10 cells.

Regarding `Cc1nnc(NC(=O)c2csc(C3CC3NCC3CCOCC3)c2)s1` (single isomer, unassigned) [Example 41, dihydrochloride], the IC50 is < 0.1 µM against human LSD1(172-833) and 67 µM on MAO-A enzyme (dihydrochloride).

For `Cc1nnc(NC(=O)c2csc([C@@H]3C[C@H]3NC3CCOCC3)c2)s1` [Example 49, N-(5-methyl-1,3,4-thiadiazol-2-yl)-5-((1R,2R)-2-(tetrahydro-2H-pyran-4-ylamino)cyclopropyl)thiophene-3-carboxamide hydrochloride], the IC50 was < 0.1 µM at human LSD1(172-833), > 100 µM on MAO-A enzyme and > 100 µM against MAO-B enzyme.

On to `Cn1cc(NC(=O)c2csc([C@@H]3C[C@H]3NC3CCC3)c2)cn1` (relative stereo) [Example 34, 5-(trans-2-(cyclobutylamino)cyclopropyl)-N-(1-methyl-1H-pyrazol-4-yl)thiophene-3-carboxamide hydrochloride], for which the results for the IC50 against human LSD1(172-833), at MAO-A enzyme and on MAO-B enzyme were < 0.1 µM, > 100 µM and > 100 µM, respectively.

On to `NC1CCC(N[C@@H]2C[C@H]2c2cc(C(=O)NC3CCC(F)(F)CC3)cs2)CC1` (single isomer, unassigned) [Example 45, dihydrochloride], for which the half-maximal inhibitory concentration (IC50) against human LSD1(172-833) was < 0.1 µM; at MAO-A enzyme it was > 100 µM; against MAO-B enzyme, > 100 µM.

In the case of `O=C(NC1CCC(F)(F)CC1)c1csc([C@@H]2C[C@H]2NC2CCN(C3CC3)CC2)c1` [Example 80, 5-((1R,2R)-2-((1-cyclopropylpiperidin-4-yl)amino)cyclopropyl)-N-(4,4-difluorocyclohexyl)thiophene-3-carboxamide hydrochloride], the IC50 at human LSD1(172-833) was < 0.1 µM; at MAO-A enzyme, > 100 µM; against MAO-B enzyme, > 100 µM.

On to `Cc1nnc(NC(=O)c2csc([C@@H]3C[C@H]3NC3CCN(C4CC4)CC3)c2)s1` [Example 48, 5-((1R,2R)-2-((1-cyclopropylpiperidin-4-yl)amino)cyclopropyl)-N-(5-methyl-1,3,4-thiadiazol-2-yl)thiophene-3-carboxamide dihydrochloride], for which the IC50 is < 0.1 µM against human LSD1(172-833), 31 µM against MAO-A enzyme and > 100 µM at MAO-B enzyme.

As to `O=C(NC1CCOCC1)c1csc([C@@H]2C[C@H]2NC2CCC(F)(F)CC2)c1` [Example 47, 5-((1R,2R)-2-((4,4-difluorocyclohexyl)amino)cyclopropyl)-N-(tetrahydro-2H-pyran-4-yl)thiophene-3-carboxamide hydrochloride], the IC50 was < 0.1 µM on human LSD1(172-833), > 100 µM at MAO-A enzyme and > 100 µM on MAO-B enzyme.

For `Cc1nn(C)cc1NC(=O)c1csc([C@@H]2C[C@H]2NCC2CCOCC2)c1` [Example 54, N-(1,3-dimethyl-1H-pyrazol-4-yl)-5-((1R,2R)-2-((tetrahydro-2H-pyran-4-ylmethyl)amino)cyclopropyl)thiophene-3-carboxamide dihydrochloride], the IC50 was < 0.1 µM against human LSD1(172-833), > 100 µM on MAO-A enzyme and > 100 µM against MAO-B enzyme.

`O=C(NC1CCC(F)(F)CC1)c1csc([C@@H]2C[C@H]2NCC2CCOCC2)c1` (relative stereo) [Example 24, N-(4,4-difluorocyclohexyl)-5-(trans-2-((tetrahydro-2H-pyran-4-ylmethyl)amino)cyclopropyl)thiophene-3-carboxamide hydrochloride]: the results for the IC50 against human LSD1(172-833), against MAO-A enzyme and at MAO-B enzyme were < 0.1 µM, > 100 µM and > 100 µM, respectively.

For the compound `Cc1c(NC(=O)c2csc([C@@H]3C[C@H]3NCC3CCOCC3)c2)cnn1C` [Example 55, N-(1,5-dimethyl-1H-pyrazol-4-yl)-5-((1R,2R)-2-((tetrahydro-2H-pyran-4-ylmethyl)amino)cyclopropyl)thiophene-3-carboxamide dihydrochloride], the IC50 is < 0.1 µM against human LSD1(172-833), > 100 µM against MAO-A enzyme and > 100 µM at MAO-B enzyme.

`Cc1nnc(NC(=O)c2cc([C@@H]3C[C@H]3NCC3CCOCC3)cs2)s1` (relative stereo) [Example 58, N-(5-methyl-1,3,4-thiadiazol-2-yl)-4-(trans-2-((tetrahydro-2H-pyran-4-ylmethyl)amino)cyclopropyl)thiophene-2-carboxamide hydrochloride]: the figures for the IC50 on human LSD1(172-833), against MAO-A enzyme and at MAO-B enzyme were < 0.1 µM, > 100 µM and > 100 µM, respectively.

Consider `Cc1nnc(NC(=O)c2csc([C@@H]3C[C@H]3NCC3CCN(CCC(=O)O)CC3)c2)s1` [Example 60, 3-(4-((((1R,2R)-2-(4-((5-methyl-1,3,4-thiadiazol-2-yl)carbamoyl)-2-thienyl)cyclopropyl)amino)methyl)piperidin-1-yl)propanoic acid trihydrochloride], for which the IC50 was < 0.1 µM on human LSD1(172-833), > 100 µM at MAO-A enzyme and > 100 µM against MAO-B enzyme.

`Cc1nnc(NC(=O)c2csc([C@@H]3C[C@H]3NCC3CC3)c2)s1` (relative stereo) [Example 23, 5-(trans-2-((cyclopropylmethyl)amino)cyclopropyl)-N-(5-methyl-1,3,4-thiadiazol-2-yl)thiophene-3-carboxamide dihydrochloride]: the half-maximal inhibitory concentration (IC50) against MAO-A enzyme and against MAO-B enzyme was > 100 µM in each case.

Take `Cc1sc(C(=O)Nc2cnn(C)c2)cc1[C@@H]1C[C@H]1NC1CCC1` [Example 104, 4-((1S,2R)-2-(cyclobutylamino)cyclopropyl)-5-methyl-N-(1-methyl-1H-pyrazol-4-yl)thiophene-2-carboxamide dihydrochloride]: in series [1] (1 mg/kg, dihydrochloride), the “Platelets, Mean” value is on record as 1370 10^3 cells; the “Red blood cells, Mean” value is reported as 870 10^4 cells; the “White blood cells, Mean” value is recorded as 373 10 cells. Further, in series [1] (10 mg/kg, dihydrochloride), the “Platelets, Mean” value was 1404 10^3 cells; the “Red blood cells, Mean” value was 872 10^4 cells; the “White blood cells, Mean” value is on record as 397 10 cells.

As to `Cc1nnc(NC(=O)c2cc([C@@H]3C[C@H]3NCC3CCOCC3)cs2)s1` [Example 72, N-(5-methyl-1,3,4-thiadiazol-2-yl)-4-((1S,2R)-2-((tetrahydro-2H-pyran-4-ylmethyl)amino)cyclopropyl)thiophene-2-carboxamide hydrochloride], the 50% inhibitory concentration (IC50) at human LSD1(172-833) is < 0.1 µM.
